Measurements taken from patent publication US20230042729A1, “PEPTIDE CONSTRUCTS AND COMPOSITIONS” (DIET4LIFE APS, priority 2019, published 2023).
No end group written: not given here.

Tests used:
[1] = target: trypsin inhibitor T9253 from chicken egg white (UniProt P01005)
[2] = target: T1, trypsin inhibitor, T9128 from soybean (UniProt P01070)
T1 sequence: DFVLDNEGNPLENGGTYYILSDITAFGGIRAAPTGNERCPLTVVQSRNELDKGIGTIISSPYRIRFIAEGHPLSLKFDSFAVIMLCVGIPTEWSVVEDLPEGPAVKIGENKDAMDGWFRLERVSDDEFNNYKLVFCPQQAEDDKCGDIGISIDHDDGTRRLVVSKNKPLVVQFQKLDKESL

carboxypeptidase = test: Carboxypeptidase activity in pancreatin (Hippuryl-L-phenylalanine); assay type: biochemical, porcine; conditions: 0.1 mg/ml pancreatin (FIG. 23D)
Excerpt: FIG. 23. Enzymes in intestine homogenate and pancreatin.

[3] = target: T2, commercial carboxypeptidase inhibitor (CPI) from Potato tuber (UniProt P01075)
T2 sequence: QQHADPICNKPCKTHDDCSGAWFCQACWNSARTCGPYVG

chymotrypsin = chymotrypsin (Homo sapiens, UniProt P17538); test: Stability studies of DC7-2: chymotrypsin; assay type: in vitro ADME
[4] = Stability of peptides in serum, remaining activity read in intestinal cells; assay type: in vitro ADME, Bovine; conditions: octapeptides; fraction of peptide activity left after 10 min of incubation in serum at 37° C. compared with undigested sample
Method: All peptides were incubated at 10^−5 M with Fetal Bovine Serum (FBS; final concentration of 66.7%) (Sigma Aldrich, Denmark) at 37° C. for 3 hours. The peptide degradation was terminated using 1 M phosphoric acid (final 0.4 M, pH˜1.2) and neutralized to pH 7.2-7.4 with NaOH before testing activity in intestinal cells. As for small intestine homogenates, a zero degradation control was included for each peptide.
DC7-2, NT, DKPYIL and NT-(8-13) (final concentration of 10^−6 M) were incubated either with FBS or with 270× diluted intestinal homogenate at 37° C. for various time points with shaking. Degradation was stopped with 1 M phosphoric acid and the samples were subsequently neutralized and immediately tested with intestinal cells as described above. Control for zero degradation was included for each peptide as above.
(§1) The 20 hexapeptides with systematic N-terminal substitutions (X-KPYIL) (Schafer-N, Denmark) and NT (8-13) was incubated at 10^−6 M in either FBS for 10 minutes or with 270× diluted intestinal homogenate for 30 minutes at 37° C. with shaking. The degradation was stopped with 1 M phosphoric acid. Peptide solutions were neutralized with NaOH (pH 7.2-7.4), diluted and immediately tested for bioactivity using murine intestinal cells. Determination of EC50 for stimulation of cells allowed calculation of recovered peptide.

gastric pepsin = gastric pepsin (Homo sapiens, UniProt P0DJD8); test: Stability studies of DC7-2: pepsin; assay type: in vitro ADME
carboxypeptidases = test: Stability studies of DC7-2: carboxypeptidases; assay type: in vitro ADME
trypsin = trypsin (Homo sapiens, UniProt P07477); test: Stability studies of DC7-2: trypsin; assay type: in vitro ADME
murine intestinal cells = murine intestinal cells (Mus musculus, UniProt O88319); test: Ca2+ flux / calcium response assay (cell signaling activity); assay type: cell-based
Method: Ca^2+ Flux Assay/Calcium Response Assay:
Elevation of intracellular calcium level was measured using the fluorescent calcium chelating dye Fluo-4 AM (ThermoFischer Scientific, Denmark). Briefly, cells were grown as a monolayer in 96-well tissue culture plates (Sarstedt, Germany) to near confluence in appropriate growth medium as described in the cell culture section.
All test compounds were dissolved in water, and then diluted in 1×HBSS containing 25 mM HEPES (pH 7.4), 1% BSA and 2% ink. […]

[5] = Stability of peptides ex vivo in rodent intestine; assay type: in vitro ADME, mouse or rat; conditions: rodent intestine model of degradation
Method: 0,001 mg/ml of the indicated peptides were incubated with pieces of rodent intestine (mouse and rat intestine gave similar results) for up to 10 minutes at 37° C. Recovery of activity was tested with dose-response curves as indicated.
FIG. 9. Stability of peptides in rodent intestine. EC50 values for different peptides and different incubation times were calculated from FIG. 8 and recovered activity plotted as a function of time.
Peptides are degraded by proteases in the gastrointestinal tract. However the speed of this degradation depends on the sequence of the peptide. In order to measure stability of the […] peptide series and to compare with e.g. RRKPYIL, 10 or 50 mg (wet weight) of mouse or rat intestinal tissue (distal ileum) was equilibrated in V-bottom 24 well plates in 800 μl HBSS, 25 mM HEPES, pH 7.4 at 37° C. with shaking at 350 rpm. Identical amounts of different peptides (final concentration of 1 μg/ml) were added to the intestinal pieces and incubation continued. At various time points, 100 μl aliquots were removed and diluted into whey protein hydrolysate (final concentration of 10 mg/ml) to non-specifically compete protease activity. Peptide solutions were then diluted and tested for bioactivity (FIG. 8). Peptides incubated under same conditions but in absence of intestine served as controls (no degradation). […]

[6] = Stability of peptides in intestine homogenate, remaining activity read in intestinal cells; assay type: in vitro ADME, mice; conditions: octapeptides; % activity left after 30 min incubation in intestine homogenate at 37° C.
Method: Small intestines from 20 Swiss-Webster males were homogenized in 350 ml Dulbecco's phosphate-buffered saline (PBS) (pH 7.4) (ThermoFischer Scientific, Denmark) with a IKA® basic 18 Ultra-Turrax tissue homogenizer set a speed 5 followed by filtration using 100 μm nylon mesh filter. Protein concentration was 6 mg/ml using the bicinconinic acid assay (ThermoFischer Scientific, Denmark) and bovine serum albumin as standard. The intestine homogenate was diluted 10 times in HBSS containing 25 mM HEPES (pH 7.4), and further diluted 30×, 90×, 270×, 810× or 2430× before incubation with peptides. All solutions were prewarmed to 37° C. before mixing with peptide solutions.
Peptides were incubated at 10^−5 M with dilutions of small intestine homogenate at 37° C. for 90 minutes with shaking. Reactions were stopped by addition of 1 M phosphoric acid (final 0.4 M, pH˜1.2). Each peptide incubation mix was then neutralized with NaOH to pH 7.2-7.4 and immediately tested for activity in intestinal cells. Control for zero degradation, i.e. addition of 1 M phosphoric acid prior to addition of intestine homogenate, was included for each peptide. […]
as §1

[7] = target: T3, trypsin inhibitor T9253 from chicken egg white, P01005
T3 chain: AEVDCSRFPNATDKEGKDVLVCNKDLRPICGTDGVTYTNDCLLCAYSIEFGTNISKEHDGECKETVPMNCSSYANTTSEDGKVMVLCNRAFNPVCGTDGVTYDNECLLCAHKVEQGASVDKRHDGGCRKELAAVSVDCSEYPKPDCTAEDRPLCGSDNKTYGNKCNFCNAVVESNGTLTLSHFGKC

[8] = target: T4, trypsin inhibitor, T9128 from soybean, P01070
T4 chain: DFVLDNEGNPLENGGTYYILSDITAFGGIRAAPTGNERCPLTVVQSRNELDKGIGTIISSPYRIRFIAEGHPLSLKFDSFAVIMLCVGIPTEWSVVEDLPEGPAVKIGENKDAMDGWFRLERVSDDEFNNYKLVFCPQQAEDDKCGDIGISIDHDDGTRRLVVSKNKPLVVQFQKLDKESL

Chain of murine intestinal cells (O88319 whole entry): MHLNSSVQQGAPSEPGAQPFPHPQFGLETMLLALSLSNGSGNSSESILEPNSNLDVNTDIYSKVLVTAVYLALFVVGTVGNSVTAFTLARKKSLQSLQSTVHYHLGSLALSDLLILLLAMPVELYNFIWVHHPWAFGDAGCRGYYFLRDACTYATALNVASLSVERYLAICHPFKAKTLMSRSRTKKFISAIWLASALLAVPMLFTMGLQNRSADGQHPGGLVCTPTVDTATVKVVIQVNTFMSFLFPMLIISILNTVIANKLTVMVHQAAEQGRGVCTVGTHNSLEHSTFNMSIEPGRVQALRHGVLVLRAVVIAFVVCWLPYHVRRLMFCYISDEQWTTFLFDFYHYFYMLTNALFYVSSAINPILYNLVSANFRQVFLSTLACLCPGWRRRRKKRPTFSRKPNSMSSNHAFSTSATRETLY
Chain of chymotrypsin (P17538 19-263): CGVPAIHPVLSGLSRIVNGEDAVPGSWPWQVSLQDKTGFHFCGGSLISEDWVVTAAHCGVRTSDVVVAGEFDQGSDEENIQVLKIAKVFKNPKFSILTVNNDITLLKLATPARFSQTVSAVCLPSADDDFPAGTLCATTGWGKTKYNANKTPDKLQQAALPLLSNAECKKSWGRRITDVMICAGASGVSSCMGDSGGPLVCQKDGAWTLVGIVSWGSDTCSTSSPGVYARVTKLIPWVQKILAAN
Chain of gastric pepsin (P0DJD8 63-388): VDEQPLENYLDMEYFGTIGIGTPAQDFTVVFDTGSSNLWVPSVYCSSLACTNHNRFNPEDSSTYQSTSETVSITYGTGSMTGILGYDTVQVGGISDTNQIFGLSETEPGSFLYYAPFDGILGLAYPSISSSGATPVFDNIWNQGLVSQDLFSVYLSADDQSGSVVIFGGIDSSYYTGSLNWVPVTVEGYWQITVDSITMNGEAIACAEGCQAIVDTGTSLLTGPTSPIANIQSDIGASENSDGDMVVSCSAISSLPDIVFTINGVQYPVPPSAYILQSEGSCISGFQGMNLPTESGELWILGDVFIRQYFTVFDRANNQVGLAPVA

trypsin in intestine homogenate (mouse small intestine)
trypsin activity (conversion of L-BAPA, slope of kinetic absorbance) [1]: Intestinal and pancreatic trypsin activity was inhibited in a dose-dependent manner by two specific trypsin inhibitors from soybean and chicken egg white, respectively | trypsin activity (conversion of L-BAPA, slope of kinetic absorbance) [2]: Intestinal and pancreatic trypsin activity was inhibited in a dose-dependent manner by two specific trypsin inhibitors from soybean and chicken egg white, respectively

CPI: commercial carboxypeptidase inhibitor from Potato tuber (QQHADPICNKPCKTHDDCSGAWFCQACWNSARTCGPYVG)
carboxypeptidase activity (carboxypeptidase): efficiently suppressed

carboxypeptidase in porcine pancreatin
carboxypeptidase activity (Hippuryl-L-phenylalanine substrate, slope of kinetic absorbance) [3]: carboxypeptidase activity, which was efficiently suppressed by a commercial carboxypeptidase inhibitor (CPI) from Potato tuber

ASDKPYIL [Peptide 36036, A SDKPYIL]
sensitivity to chymotrypsin (chymotrypsin): sensitive | Stability in serum (activity remaining) [4]: 0.0988 | degradation by gastric pepsin (gastric pepsin): resilient | sensitivity to carboxypeptidases (carboxypeptidases): sensitive | sensitivity to trypsin (trypsin): sensitive | EC50 (murine intestinal cells): 3.51 nM | stability compared with the active fragment of neurotensin [5]: 100-1000 times | Stability in intestine (activity remaining) [6]: 6.0%

GSDKPYIL [Peptide 36041, G SDKPYIL]
Stability in serum (activity remaining) [4]: 0.0912 | EC50 (murine intestinal cells): 4.07 nM | Stability in intestine (activity remaining) [6]: 10.3%

NSDKPYIL [Peptide 36047, N SDKPYIL]
Stability in serum (activity remaining) [4]: 0.0872 | EC50 (murine intestinal cells): 4.41 nM | Stability in intestine (activity remaining) [6]: 3.9%

B1: trypsin in porcine pancreatin (protein)
chain: IVGGYTCAANSIPYQVSLNSGSHFCGGSLINSQWVVSAAHCYKSRIQVRLGEHNIDVLEGNEQFINAAKIITHPNFNGNTLDNDIMLIKLSSPATLNSRVATVSLPRSCAAAGTECLISGWGNTKSSGSSYPSLLQCLKAPVLSDSSCKSSYPGQITGNMICVGFLEGGKDSCQGDSGGPVVCNGQLQGIVSWGYGCAQKNKPGVYTKVCNYVNWIQQTIAAN
trypsin activity (conversion of L-BAPA, slope of kinetic absorbance) [7]: Intestinal and pancreatic trypsin activity was inhibited in a dose-dependent manner by two specific trypsin inhibitors from soybean and chicken egg white, respectively | trypsin activity (conversion of L-BAPA, slope of kinetic absorbance) [8]: Intestinal and pancreatic trypsin activity was inhibited in a dose-dependent manner by two specific trypsin inhibitors from soybean and chicken egg white, respectively
